In ChEMBL document CHEMBL4765474, “Discovery of a "Gatekeeper" Antagonist that Blocks Entry Pathway to Retinoid X Receptors (RXRs) without Allosteric Ligand Inhibition in Permissive RXR Heterodimers” (J Med Chem, 2021):
pKd, pKi: −log10 of the molar value.

Experiments:
[1] = target: T1, Retinoic acid receptor RXR-alpha (Homo sapiens, UniProt P19793); experiment: Displacement of [3H]-9-cis retinoic acid from recombinant human RXR-alpha LBD by liquid scintillation counting based competitive ligand binding assay
T1 sequence (P19793 whole entry): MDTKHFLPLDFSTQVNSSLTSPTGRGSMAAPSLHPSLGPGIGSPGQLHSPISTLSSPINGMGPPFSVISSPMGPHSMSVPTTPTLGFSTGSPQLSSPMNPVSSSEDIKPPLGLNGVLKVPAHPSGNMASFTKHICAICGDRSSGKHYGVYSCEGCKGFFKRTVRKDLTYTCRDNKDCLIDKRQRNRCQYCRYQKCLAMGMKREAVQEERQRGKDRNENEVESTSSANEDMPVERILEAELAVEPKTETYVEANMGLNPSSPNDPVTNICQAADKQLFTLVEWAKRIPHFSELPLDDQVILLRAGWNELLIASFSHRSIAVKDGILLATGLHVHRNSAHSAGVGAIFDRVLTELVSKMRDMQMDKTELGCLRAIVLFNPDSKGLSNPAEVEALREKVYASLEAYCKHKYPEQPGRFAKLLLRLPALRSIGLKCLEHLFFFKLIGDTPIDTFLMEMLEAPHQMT

RXR alpha/PPAR gamma = RXR alpha/PPAR gamma (Homo sapiens, UniProt P19793); experiment: Competitive antagonist activity at human PPAR-gamma/RXRA expressed in African green monkey COS7 cells assessed as reduction in bexarotene-induced receptor activation by RXRE-dependent luciferase reporter gene assay; type: cell-based; details: read-out: pA2 (converted)
[2] = target: T2, Retinoic acid receptor RXR-alpha/oxysterols receptor LXR-alpha (Homo sapiens, UniProt P19793); experiment: Competitive antagonist activity at human LXR-alpha/RXRA expressed in African green monkey COS7 cells assessed as reduction in bexarotene-induced receptor activation by RXRE-dependent luciferase reporter gene assay; type: cell-based; details: read-out: pA2 (converted)
T2 sequence (P19793 whole entry): T1 sequence (P19793 whole entry)
T2 sequence (Q13133 whole entry): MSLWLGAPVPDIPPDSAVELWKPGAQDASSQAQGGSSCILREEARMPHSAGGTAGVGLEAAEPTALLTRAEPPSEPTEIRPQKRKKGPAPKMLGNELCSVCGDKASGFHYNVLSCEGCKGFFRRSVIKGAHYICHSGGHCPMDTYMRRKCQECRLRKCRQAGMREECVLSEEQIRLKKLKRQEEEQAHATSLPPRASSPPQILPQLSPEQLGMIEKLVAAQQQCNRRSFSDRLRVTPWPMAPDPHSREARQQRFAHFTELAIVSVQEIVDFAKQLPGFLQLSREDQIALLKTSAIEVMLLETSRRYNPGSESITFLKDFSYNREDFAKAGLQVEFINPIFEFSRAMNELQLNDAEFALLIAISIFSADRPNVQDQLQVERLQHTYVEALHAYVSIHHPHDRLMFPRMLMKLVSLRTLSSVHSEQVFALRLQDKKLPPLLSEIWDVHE

[3] = target: T1, Retinoic acid receptor RXR-alpha; experiment: Binding affinity to human RXR-alpha LBD incubated for 2 hrs by tryptophan fluorescence quenching assay
[4] = target: T1, Retinoic acid receptor RXR-alpha; experiment: Competitive antagonist activity at human RXRA/RXRA expressed in African green monkey COS7 cells assessed as reduction in bexarotene-induced receptor activation by RXRE-dependent luciferase reporter gene assay; type: cell-based; details: read-out: pA2 (converted)
[5] = target: T1, Retinoic acid receptor RXR-alpha; experiment: Binding affinity to human RXR-alpha by ITC analysis

RXR alpha/PPAR gamma, sequence (P37231 whole entry, one chain of several): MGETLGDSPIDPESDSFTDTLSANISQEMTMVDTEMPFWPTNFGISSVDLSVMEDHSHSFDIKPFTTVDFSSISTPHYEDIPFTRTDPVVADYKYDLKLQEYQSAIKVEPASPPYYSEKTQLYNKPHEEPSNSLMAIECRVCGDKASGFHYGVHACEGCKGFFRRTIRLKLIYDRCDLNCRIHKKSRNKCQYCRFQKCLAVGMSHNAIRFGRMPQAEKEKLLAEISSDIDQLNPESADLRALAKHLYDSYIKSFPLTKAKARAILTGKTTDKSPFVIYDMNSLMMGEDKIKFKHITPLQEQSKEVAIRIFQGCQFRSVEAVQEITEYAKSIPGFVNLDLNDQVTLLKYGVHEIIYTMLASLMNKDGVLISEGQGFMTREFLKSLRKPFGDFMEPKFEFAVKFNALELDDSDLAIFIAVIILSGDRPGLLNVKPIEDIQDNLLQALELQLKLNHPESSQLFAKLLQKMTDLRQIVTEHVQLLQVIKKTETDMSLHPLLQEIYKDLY

In the case of `CCCCCCOc1cc2c(cc1N(C)c1ncc(C(=O)O)cn1)C(C)(C)CCC2(C)C`, the pKi [1] was 5.87, the Kb (RXR alpha/PPAR gamma) was 10 nM and the Kb [2] was 302 nM. It also gave a pKd [3] of 6.59, a Kb [4] of 63.1 nM and a pKd [5] of 5.87.
